What was measured:
PC9 cells [1] = test: Clonogenic assay, PC9; type: cell-based, human; details: PC9, 10 μM, 7 days
Protocol: (§1) Figure 7: Cellular characterization of MSI2 inhibition by R12–8–44–3. (A) Quantification of mRNA immunoprecipitation (RIP) results. Cells were treated with 10 μM of the indicated compounds for 8 hours. After immunoprecipitation with anti-MSI2, mRNA targets were quantified. The amount of each target mRNA in the pulldown was calculated relative to the input, and results from all targets were normalized to PTP4A1. Treating cells with R12–8–44–3 disrupted the interaction with all four cognate mRNAs (PTP4A, SMAD3, EGFR, and MSI2). Data are presented as the average ± S.E.M. from at least 3 independent replicates. […] Cells were treated with indicated compounds at two concentrations (5 μM and 20 μM) for 48 hours, then protein levels of relevant MSI2 targets were determined (EGFR, SMAD3, and MSI2). One representative image is shown; quantification is presented as the average ± S.E.M. from at least 3 independent replicates, normalized first to beta-actin and then to DMSO-treated cells. (C) Cell viability dose-response quantified by CellTiter-Blue after 3 days (left) and cell proliferation with 10μM of compounds quantified by clonogenic assay after 7 days (right). […] (D) Cell viability quantified by clonogenic assay of PC9 cell line after 7-day treatment with 2 nM osimertinib (osi alone), osimertinib with 10 μM R12–8–44–3, or osimertinib with 10 μM R12-neg. […]

MSI2 [2] = target: T1, MSI2 (Homo sapiens, UniProt Q96DH6); test: Cellular thermal shift assay (CETSA) in K562 cells; type: cell-based; details: K562, 3 hours, 20 μM or 40 μM, heated to 49 °C
Excerpt: (§2) To explore the effect of these MSI2 inhibitors in a cancer-relevant cellular context, we selected two MSI2-dependent cancer cell lines: non-small cell lung cancer cell line PC9 and leukemia cell line K562 [73, 98–101]. Upon treatment of PC9 cells with Ro, R12–8–44–3, or negative control R12-neg, we found at multiple time points that cellular MSI2 protein levels were unchanged (Figure 6a). To confirm target engagement, we therefore adapted the cellular thermal shift assay (CETSA). […]
(§3) Figure 6: Direct cellular engagement of MSI2 interaction by R12–44–3. […] MSI2 protein abundance was then quantified and normalized to untreated sample. One representative image is shown; quantification is presented as the average ± S.E.M. from 3 independent replicates. […] Cells were briefly incubated at temperatures between 40 °C to 67 °C, then centrifuged and the amount of MSI2 remaining in the soluble fraction was quantified by Western blotting. […] One representative image is shown; quantification is presented as the average ± S.E.M. from 3 independent replicates, normalized first to beta-actin and then to DMSO control. […] One representative image is shown; quantification is presented as the average ± S.E.M. from 3 independent replicates, normalized first to beta-actin and then to DMSO control. […]

PC9 cells [3] = test: Clonogenic assay, combination with osimertinib, PC9; type: cell-based, human; details: PC9, 7 days, 2 nM osimertinib with 10 μM compound
Protocol: as §1

MSI1 RRM1 = target: T2, MSI1 RRM1 (Homo sapiens, UniProt O43347); test: HSQC chemical shift mapping; type: binding; details: MSI1 RRM1 in presence vs absence of compound
T2 sequence (O43347 20-110 limits assumed): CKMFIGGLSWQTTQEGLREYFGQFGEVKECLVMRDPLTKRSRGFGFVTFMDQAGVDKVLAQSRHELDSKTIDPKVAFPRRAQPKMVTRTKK
Excerpt: To test the hypothesis that R12–8–44–3 engages MSI1 RRM1 though specific binding interactions (rather than non-specific aggregation), we used HSQC chemical shift mapping. We collected spectra for this construct in the presence and absence of R12–8–44–3 (Figure 3a), using previously-reported assignments from a very similar construct. […] While not all peaks were assigned in our reference spectrum, we gratifyingly find that of the assigned peaks, those with the largest chemical shift differences (Phe23, Lys93) comprise exactly the expected binding site for R12–8–44–3 (Figure 3b).
Figure 3: Structural characterization of R12–8–44–3 / MSI1. (A) HSQC spectrum of MSI1 RRM1 collected in the presence (red) or absence (black) of R12–8–44–3. Assigned peaks showing the strongest chemical shift difference are labeled (Phe23, Lys93). (B) Mapping the location of these residues to our model of R12–8–44–3/MSI1 confirms that these residues comprise the intended binding site.

MSI2 [4] = target: T1, MSI2; test: Cellular thermal shift assay (CETSA) in PC9 cells; type: cell-based; design: endogenous in cells; host or cells: PC9; details: PC9, 3 hours, 20 μM or 40 μM, heated to 49 °C
Excerpt: as §2, §3

T1 sequence (Q96DH6 whole entry): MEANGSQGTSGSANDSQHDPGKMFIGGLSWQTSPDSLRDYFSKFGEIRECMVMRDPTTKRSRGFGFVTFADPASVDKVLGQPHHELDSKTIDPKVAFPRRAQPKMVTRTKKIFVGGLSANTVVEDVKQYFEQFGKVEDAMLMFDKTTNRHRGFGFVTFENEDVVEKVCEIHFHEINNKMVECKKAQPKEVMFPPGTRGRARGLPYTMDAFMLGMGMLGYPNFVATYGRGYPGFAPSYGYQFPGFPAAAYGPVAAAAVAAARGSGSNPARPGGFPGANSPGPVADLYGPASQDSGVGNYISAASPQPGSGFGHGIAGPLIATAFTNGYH

HSQC chemical shift changes on addition of compound (MSI1 RRM1): only a small number of peaks shift
SMILES: Cc1cc(C(=O)OCc2nc(N)c3c(C)c(C)sc3n2)c(N)cc1F [R12–8–44–3]
cell proliferation (clonogenic assay) (PC9 cells [1]): no effect on cell growth/survival
soluble MSI2 after heating (CETSA) (MSI2 [2]): confers protection against thermal-induced aggregation
clonogenic assay in combination with osimertinib (PC9 cells [3]): robust combined effect with osimertinib
soluble MSI2 after heating (CETSA) (MSI2 [4]): confers protection against thermal-induced aggregation

Reference: publication PMC9882606, “Rationally designed inhibitors of the Musashi protein-RNA interaction by hotspot mimicry” (Research Square, 2023)
